Experimental data taken from patent US20230233589A1, “METHODS FOR TREATING CANCER USING A MODIFIED MONOSACCHARIDE COMPOUND” (THERAONCO, priority 2020, published 2023).

Test: Clinical follow-up of treated mice (body weight, water consumption)
Format: in vivo, NMRI nude mice
Experimental: 45 female NMRI nude mice, 6 weeks old.
Clinical follow-up: animals weight and tumor volume: 2-3 times a week.
Hela and Cal33 Cell Lines • cumulative dose of 20 mg (5 mg/mouse/inj repeated 1 day/2 for 8 days (4 times)) Panc-1 cell line • cumulative dose of […] (9 mg/mouse/injection repeated 1 day/2 for 21 days (11 times))
Hela Cell Lines • cumulative dose of 200 mg per mouse: 25 mg/day (8 mL/day @ 3.13 mg/mL) over 8 days
Cal33 Cell Lines • cumulative dose of 400 mg per mouse: 50 mg/day (8 mL/day @ 6.25 mg/mL) over 8 days
Panc-1 Cell Line • cumulative dose of 200 mg per mouse: 9.5 mg/day (8 mL/day @ 1.19 mg/mL) over 21 days

[N-]=[N+]=NC[C@H]1OC(O)[C@@H](O)[C@@H]1O (stereo partly drawn) [Ara-N3, 5-azido-5-deoxy-D-arabinofuranose]
water consumption of the mice (Ara-N3 in drinking water up to 6.25 mg/mL): did not alter the water consumption
body weight loss (treatment by intravenous injections): did not induce any body weight loss
body weight loss (treatment in drinking water): did not induce any body weight loss
